Experimental data from patent US9925139B2, “Pharmaceutical compositions for acute glucocorticoid therapy” (ACUCORT AB, priority 2004, dated 2018).

Tests used:
[1] = In vivo plasma cortisol profile in healthy volunteers with suppressed endogenous cortisol, oral mucosal administration; design: species or system human
Experimental: The in vivo experiments reported herein were carried out on healthy volunteers. At 6 pm and 11 pm the day before administration of the test composition, the endogenous cortisol secretion was suppressed by oral administration of 2 mg of betamethasone. The test composition was administered to healthy volunteers. The volunteers were in fasted state and were not allowed to take any food until noon. In the case a tablet is administered, it is ingested together with 200 ml of water. The test composition is administered between 8 am and 10 am on the day following the suppression of endogenous glucocorticoid secretion.
In vivo plasma profiles in humans, N=1 per composition
Dexamethasone suppression test, fasting state, otherwise as described in the paragraph denoted “Method”.
Two films were prepared essentially similar to Example 13—composition A. Film A contains 10 mg of hydrocortisone and film B contains 11.2 mg of hydrocortisone acetate.
The hydrocortisone compositions were tested in two human subjects after labial administration. The subjects had their endogenous glucocorticoid secretion suppressed by synthetic glucocorticoids. The plasma concentration of cortisol was monitored during 360 min after the labial administration, and the serum concentration time profiles from these two subjects are shown in FIGS. 6 and 7.
The compositions were tested after oral administration to two human subjects (see FIG. 8).

[2] = cited from earlier work; for Equivalent amount: dose equivalent for glucocorticoid therapy; for Hydrocortisone equivalent (1 mg of the glucocorticoid corresponds to the listed amount in mg of hydrocortisone): per 1 mg of the glucocorticoid

| Time at which first measured plasma concentration was attained ([1]; Example 13 films, 10 mg hydrocortisone, labial administration, two human subjects) | Rate and extent of mucosal uptake ([1]; Example 13 films, 10 mg hydrocortisone, labial administration, two human subjects, FIGS. 6 and 7) | Structure (SMILES) | Suitability for an immediate release composition (in vivo plasma profiles) ([1]; Example 11 thin-layer films, humans, N=1 per composition, fasting state, FIGS. 1-3) | Equivalent amount [2] | Hydrocortisone equivalent (1 mg of the glucocorticoid corresponds to the listed amount in mg of hydrocortisone) [2] |
| --- | --- | --- | --- | --- | --- |
|  |  | CC(=O)OCC(=O)[C@@]1(O)CC[C@H]2[C@@H]3CCC4=CC(=O)CC[C@]4(C)[C@H]3[C@@H](O)C[C@@]21C [hydrocortisone acetate] | does not seem to be suitable for an immediate release composition |  |  |
|  |  | C[C@]12C=CC(=O)C=C1CC[C@@H]1[C@@H]2[C@@H](O)C[C@@]2(C)[C@H]1CC[C@]2(O)C(=O)CO [Prednisolone] |  | 5 mg | 4 mg |
| 10 to 15 min | high | C[C@]12CCC(=O)C=C1CC[C@@H]1[C@@H]2[C@@H](O)C[C@@]2(C)[C@H]1CC[C@]2(O)C(=O)CO [Hydrocortisone] |  | 20 mg | 1 mg |
|  |  | C[C@]12C=CC(=O)C=C1CC[C@H]1[C@@H]3C[C@@H](O)[C@](O)(C(=O)CO)[C@@]3(C)C[C@H](O)[C@@]12F [Triamcinolone] |  | 4 mg | 5 mg |
|  |  | CC(=O)OCC(=O)[C@@]1(O)CC[C@H]2[C@@H]3CCC4=CC(=O)CC[C@]4(C)[C@H]3C(=O)C[C@@]21C [Cortisone acetate] |  | 25 mg | 0.8 mg |
|  |  | C[C@@H]1C[C@H]2[C@@H]3C[C@H](F)C4=CC(=O)C=C[C@]4(C)[C@H]3[C@@H](O)C[C@]2(C)[C@@]1(O)C(=O)CO [Paramethasone] |  | 2 mg | 10 mg |
